# Where “and” joins values, the source holds several entries; their conditions need not be identical. Equal entries are not always repeated. Calls of active or inactive are those of the source.
# How the values were obtained:
# [1] = tested on: H9c2; test: cells; type: functional, cell-based; conditions: Rattus norvegicus, H9c2, Myocardium;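 note: confirmatory concentration-response retest of ultra-high-throughput screening hits for modulation of myocardial damage; cell death induced by hydrogen peroxide oxidative stress; compound pretreatment for 60 min then peroxide exposure for 2 h; potency is for protecting the cells against peroxide damage rather than for killing them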
# [2] = biological target: Cytochrome P450 2D6 (Homo sapiens, UniProt P10635);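 note: CYP2D6 member of a cytochrome P450 panel assay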
# [3] = biological target: T1, Cytochrome P450 1A2 (Homo sapiens, UniProt P05177);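 note: PubChem cytochrome P450 panel assay, CYP1A2 panel member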
# T1 sequence (P05177 whole entry): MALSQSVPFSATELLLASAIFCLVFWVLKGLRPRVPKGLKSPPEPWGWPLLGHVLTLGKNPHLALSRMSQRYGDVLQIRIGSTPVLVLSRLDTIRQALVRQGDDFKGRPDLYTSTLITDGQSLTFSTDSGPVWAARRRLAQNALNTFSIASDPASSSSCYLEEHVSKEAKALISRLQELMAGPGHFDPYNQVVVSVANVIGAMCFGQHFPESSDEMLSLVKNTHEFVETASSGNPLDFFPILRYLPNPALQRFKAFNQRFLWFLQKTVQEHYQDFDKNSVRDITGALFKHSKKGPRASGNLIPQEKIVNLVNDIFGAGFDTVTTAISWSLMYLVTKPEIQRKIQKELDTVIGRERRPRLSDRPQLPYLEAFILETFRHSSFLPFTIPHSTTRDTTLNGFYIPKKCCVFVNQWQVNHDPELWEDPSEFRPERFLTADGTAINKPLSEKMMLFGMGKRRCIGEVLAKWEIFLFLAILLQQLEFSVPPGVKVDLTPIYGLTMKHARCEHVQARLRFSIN
# [4] = NIH-3T3 fibroblast cytotoxicity, dose response, cytotoxicity control, cell-based, fluorescence, Alamar Blue, secondary assay (AID 2327); type: functional;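 note: NIH-3T3 mouse fibroblasts cultured with fluconazole at 8 µg/mL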
# [5] = viability of PTEN-deleted HCT116 cells – cell-based, HCT116 PTEN knockout, dose response (AID 1047); type: functional;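 note: HCT116 colon tumor cells with PTEN knocked out; cells exposed to compound for 60 hours before readout; potency for loss of cell viability measured by luminescence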
# [6] = viability of HCT116 lacking mutant beta-catenin – cell-based, human colon tumor, dose response (AID 1045); type: functional;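 note: HCT116 colon tumor cells with beta catenin knocked out; cells exposed to compound for 60 hours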
# [7] = biological target: FAD-linked sulfhydryl oxidase ALR (Homo sapiens, UniProt P55789); test: ALR-catalysed DTT oxidation blockers – biochemical, H2O2 detection, luminescence, cherry-pick, dose response (AID 493248)
# [8] = biological target: Large T antigen (Simian virus 40, UniProt P03070); type: functional, Betapolyomavirus macacae;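 note: Confirmatory-stage PubChem screen for compounds that inhibit SV40 T antigen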
# [9] = biological target: T2, Rac GTPase-activating protein 1 (Homo sapiens, UniProt Q9H0H5); test: blockers of MgcRacGAP-driven Rac1 GTP hydrolysis – biochemical, ADP Hunter fluorescence, primary and confirmatory, confirmation (AID 624330); type: functional
# T2 sequence (Q9H0H5 whole entry): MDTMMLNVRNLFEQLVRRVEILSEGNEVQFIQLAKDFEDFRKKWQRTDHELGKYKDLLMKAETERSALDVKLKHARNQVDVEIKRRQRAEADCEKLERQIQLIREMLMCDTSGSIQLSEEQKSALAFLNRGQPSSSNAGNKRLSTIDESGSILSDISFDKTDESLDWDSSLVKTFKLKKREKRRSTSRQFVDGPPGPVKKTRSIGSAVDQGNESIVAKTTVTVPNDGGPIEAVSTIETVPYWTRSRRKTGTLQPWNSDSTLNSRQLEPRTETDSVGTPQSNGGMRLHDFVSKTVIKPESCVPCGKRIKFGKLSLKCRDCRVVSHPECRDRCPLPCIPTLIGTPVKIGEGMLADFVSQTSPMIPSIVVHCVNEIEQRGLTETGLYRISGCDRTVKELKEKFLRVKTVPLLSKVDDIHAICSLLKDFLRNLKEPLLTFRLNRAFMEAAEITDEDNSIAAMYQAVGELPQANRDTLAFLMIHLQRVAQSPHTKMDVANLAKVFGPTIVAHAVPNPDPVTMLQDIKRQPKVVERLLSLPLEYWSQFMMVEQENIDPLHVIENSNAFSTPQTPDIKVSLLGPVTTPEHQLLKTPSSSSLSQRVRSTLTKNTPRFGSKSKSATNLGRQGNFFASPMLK
# [10] = fluconazole-exposed Candida albicans growth modulators – fluorescence, retest, confirmation (AID 2467); type: functional, cell-based
# [11] = biological target: Cytochrome P450 2C9 (Homo sapiens, UniProt P11712)
# [12] = biological target: T3, RNA-binding protein pos-1 (Caenorhabditis elegans, UniProt G5EF15); test: disruptors of C. elegans POS-1 RNA interaction – biochemical, fluorescence polarization, dose response (AID 1964);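 note: purified POS-1 fused to maltose binding protein made in E. coli; potency of compounds blocking POS-1 binding to fluorescent RNA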
# T3 sequence (G5EF15 whole entry): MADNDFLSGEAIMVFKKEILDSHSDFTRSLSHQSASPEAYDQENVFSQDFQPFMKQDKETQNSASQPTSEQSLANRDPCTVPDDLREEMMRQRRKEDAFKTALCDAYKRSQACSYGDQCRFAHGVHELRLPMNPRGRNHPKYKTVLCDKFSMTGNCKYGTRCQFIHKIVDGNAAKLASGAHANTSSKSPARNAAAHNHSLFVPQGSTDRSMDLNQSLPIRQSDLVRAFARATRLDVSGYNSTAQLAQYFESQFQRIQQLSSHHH
# [13] = biological target: T4, Zinc finger protein mex-5 (Caenorhabditis elegans, UniProt Q9XUB2); test: potency of MEX-5 RNA-binding blockers – biochemical, C. elegans, fluorescence polarization, dose response (AID 1960)
# T4 sequence (Q9XUB2 whole entry): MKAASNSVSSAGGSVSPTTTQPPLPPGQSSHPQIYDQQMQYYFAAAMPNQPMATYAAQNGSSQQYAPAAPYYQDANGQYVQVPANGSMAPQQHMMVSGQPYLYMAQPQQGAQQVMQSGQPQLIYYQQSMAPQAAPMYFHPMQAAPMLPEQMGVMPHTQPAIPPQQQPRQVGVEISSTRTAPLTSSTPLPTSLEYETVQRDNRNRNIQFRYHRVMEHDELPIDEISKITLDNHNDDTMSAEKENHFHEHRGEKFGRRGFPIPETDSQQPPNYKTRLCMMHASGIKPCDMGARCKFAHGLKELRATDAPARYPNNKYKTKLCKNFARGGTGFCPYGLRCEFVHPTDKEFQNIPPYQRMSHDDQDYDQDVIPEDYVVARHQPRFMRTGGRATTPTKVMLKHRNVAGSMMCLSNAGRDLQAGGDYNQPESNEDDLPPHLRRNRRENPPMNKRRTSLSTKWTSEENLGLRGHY
# [14] = biological target: T5, Polyadenylate-binding protein 1 (Homo sapiens, UniProt P11940); test: MLLE binding blockers, Cy5 peptide tracer – biochemical, fluorescence polarization, Cy5-PAM2 peptide, secondary, miRNA deadenylation inhibitor project, dose response (AID 602260); type: functional; conditions: read-out: IC50_Mean
# [15] = biological target: T5, Polyadenylate-binding protein 1; test: MLLE domain peptide-binding blockers, IC50 – biochemical, fluorescence polarization, FITC-PAM2 peptide, dose response (AID 602259); type: functional; conditions: read-out: IC50_Mean
# [16] = biological target: Cytochrome P450 3A4 (Homo sapiens, UniProt P08684);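 note: CYP3A4 tested as one member of a cytochrome P450 panel screen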
# [17] = biological target: Cytochrome P450 2C19 (Homo sapiens, UniProt P33261); test: Cytochrome panel assay with activity outcomes. Panel member name: p450-cyp2c19 Compounds with AC50 equal or less than 10 uM are considered active; type: functional
# Cytochrome P450 2C19, sequence (P33261 whole entry): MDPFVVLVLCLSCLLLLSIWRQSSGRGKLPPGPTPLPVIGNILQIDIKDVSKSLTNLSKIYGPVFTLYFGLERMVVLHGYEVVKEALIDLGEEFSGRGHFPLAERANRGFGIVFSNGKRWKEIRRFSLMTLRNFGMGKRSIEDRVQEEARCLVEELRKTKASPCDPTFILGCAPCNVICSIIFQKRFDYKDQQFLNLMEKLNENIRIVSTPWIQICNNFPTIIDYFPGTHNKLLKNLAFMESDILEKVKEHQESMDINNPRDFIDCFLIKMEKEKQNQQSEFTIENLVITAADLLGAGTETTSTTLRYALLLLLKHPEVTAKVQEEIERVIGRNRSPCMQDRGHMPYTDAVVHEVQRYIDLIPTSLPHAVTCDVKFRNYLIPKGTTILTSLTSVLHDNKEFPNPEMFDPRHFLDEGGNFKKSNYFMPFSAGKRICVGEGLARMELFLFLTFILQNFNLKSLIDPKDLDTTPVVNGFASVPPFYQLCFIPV
# Cytochrome P450 2D6, sequence (P10635 whole entry): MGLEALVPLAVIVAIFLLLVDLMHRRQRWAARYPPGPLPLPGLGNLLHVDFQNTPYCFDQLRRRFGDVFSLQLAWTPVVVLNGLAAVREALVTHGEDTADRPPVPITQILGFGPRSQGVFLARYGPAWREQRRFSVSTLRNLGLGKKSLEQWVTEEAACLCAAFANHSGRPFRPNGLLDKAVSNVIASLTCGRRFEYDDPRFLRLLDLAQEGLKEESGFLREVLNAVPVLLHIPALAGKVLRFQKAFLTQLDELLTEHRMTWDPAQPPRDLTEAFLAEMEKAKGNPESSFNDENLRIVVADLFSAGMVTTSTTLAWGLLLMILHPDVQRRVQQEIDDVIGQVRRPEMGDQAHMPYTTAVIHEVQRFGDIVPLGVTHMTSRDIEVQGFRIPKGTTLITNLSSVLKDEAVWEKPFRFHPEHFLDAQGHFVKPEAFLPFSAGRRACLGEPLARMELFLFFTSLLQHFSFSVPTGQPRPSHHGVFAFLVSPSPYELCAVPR
# FAD-linked sulfhydryl oxidase ALR, sequence (P55789 whole entry): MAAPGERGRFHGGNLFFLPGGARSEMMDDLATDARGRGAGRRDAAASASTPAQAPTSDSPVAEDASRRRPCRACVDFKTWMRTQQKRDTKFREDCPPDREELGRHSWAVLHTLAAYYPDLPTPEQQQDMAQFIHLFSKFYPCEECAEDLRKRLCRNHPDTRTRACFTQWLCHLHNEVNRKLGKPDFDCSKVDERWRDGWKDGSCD
# Large T antigen, sequence (P03070 whole entry): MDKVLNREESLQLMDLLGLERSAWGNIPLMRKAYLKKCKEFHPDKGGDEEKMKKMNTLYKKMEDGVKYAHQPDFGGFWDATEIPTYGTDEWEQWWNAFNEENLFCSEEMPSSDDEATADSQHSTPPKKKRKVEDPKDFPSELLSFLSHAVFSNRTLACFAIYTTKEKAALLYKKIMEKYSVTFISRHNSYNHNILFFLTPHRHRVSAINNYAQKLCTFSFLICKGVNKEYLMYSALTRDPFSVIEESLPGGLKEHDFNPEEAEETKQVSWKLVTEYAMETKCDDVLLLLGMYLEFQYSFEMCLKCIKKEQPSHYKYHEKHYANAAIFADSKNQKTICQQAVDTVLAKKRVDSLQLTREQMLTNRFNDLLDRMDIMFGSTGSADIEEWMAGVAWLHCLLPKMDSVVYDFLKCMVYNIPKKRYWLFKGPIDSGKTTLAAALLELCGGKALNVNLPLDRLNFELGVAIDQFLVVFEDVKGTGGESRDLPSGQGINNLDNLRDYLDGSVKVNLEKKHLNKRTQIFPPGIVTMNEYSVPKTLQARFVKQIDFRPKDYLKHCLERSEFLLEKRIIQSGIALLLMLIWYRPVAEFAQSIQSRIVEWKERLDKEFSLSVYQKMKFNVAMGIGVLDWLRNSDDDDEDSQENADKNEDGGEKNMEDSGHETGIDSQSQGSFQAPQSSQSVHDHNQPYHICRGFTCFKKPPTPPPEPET
# T5 sequence (P11940 whole entry, the tested form may be a part): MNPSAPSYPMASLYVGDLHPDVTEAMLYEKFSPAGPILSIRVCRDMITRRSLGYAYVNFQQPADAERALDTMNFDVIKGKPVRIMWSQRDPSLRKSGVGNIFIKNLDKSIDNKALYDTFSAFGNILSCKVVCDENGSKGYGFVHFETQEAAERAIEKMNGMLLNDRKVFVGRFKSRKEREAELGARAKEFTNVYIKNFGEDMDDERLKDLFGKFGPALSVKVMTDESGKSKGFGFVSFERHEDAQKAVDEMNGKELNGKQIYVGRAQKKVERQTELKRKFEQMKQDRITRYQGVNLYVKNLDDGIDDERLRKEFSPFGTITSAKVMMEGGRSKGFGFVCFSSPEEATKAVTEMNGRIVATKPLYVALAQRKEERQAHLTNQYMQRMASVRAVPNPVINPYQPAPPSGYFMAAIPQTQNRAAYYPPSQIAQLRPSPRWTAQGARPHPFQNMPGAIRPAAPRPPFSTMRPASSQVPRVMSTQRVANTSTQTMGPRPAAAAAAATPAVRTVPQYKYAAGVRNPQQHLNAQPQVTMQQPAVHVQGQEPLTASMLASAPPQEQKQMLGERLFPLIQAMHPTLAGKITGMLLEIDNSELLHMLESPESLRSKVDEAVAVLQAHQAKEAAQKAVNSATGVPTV
# Cytochrome P450 2C9, sequence (P11712 whole entry, the tested form may be a part): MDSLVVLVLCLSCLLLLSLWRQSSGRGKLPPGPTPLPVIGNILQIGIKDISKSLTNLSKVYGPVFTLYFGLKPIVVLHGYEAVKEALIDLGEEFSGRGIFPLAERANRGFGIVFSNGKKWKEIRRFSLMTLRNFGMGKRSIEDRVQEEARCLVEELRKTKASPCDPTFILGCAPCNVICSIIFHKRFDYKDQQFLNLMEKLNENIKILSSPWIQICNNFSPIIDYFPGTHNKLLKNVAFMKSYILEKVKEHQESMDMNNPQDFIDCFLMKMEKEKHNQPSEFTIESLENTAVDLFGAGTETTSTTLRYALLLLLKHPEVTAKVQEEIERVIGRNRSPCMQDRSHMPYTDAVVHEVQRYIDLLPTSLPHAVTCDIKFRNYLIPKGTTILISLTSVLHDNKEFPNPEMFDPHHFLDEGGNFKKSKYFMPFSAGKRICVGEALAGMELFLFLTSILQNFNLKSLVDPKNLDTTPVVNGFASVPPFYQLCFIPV
# Cytochrome P450 3A4, sequence (P08684 whole entry): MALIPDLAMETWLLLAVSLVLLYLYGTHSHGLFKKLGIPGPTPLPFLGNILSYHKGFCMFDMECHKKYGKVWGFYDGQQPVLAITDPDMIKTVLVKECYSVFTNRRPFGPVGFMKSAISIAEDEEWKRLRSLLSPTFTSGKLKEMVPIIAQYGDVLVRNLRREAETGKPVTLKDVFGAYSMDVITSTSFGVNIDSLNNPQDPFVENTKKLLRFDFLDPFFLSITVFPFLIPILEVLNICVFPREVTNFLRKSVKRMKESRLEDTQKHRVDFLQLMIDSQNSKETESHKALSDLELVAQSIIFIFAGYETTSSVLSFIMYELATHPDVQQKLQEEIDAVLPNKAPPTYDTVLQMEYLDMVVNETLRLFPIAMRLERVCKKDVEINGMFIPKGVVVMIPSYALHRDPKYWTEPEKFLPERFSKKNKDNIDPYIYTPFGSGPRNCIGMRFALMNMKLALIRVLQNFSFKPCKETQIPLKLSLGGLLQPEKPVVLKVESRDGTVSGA
smiles,measurement,setting,value
CC(C)(C)NC(=O)COC(=O)c1c2c(nc3ccccc13)CCC2,IC50,[1],6.79 µM (active)
Cc1nn(Cc2c(F)c(F)c(F)c(F)c2F)c(C)c1NC(=O)c1cccc(COc2ccccc2Cl)c1,AC50,[2],0.794 µM (inconclusive)
same,AC50,[3],17.8 µM (inconclusive)
CN(C)Cc1ccccc1-c1cncnc1NC1CC1,AC50,[2],25.1 µM (inconclusive)
CC(CCc1ccccc1)NC(=O)CN1CCN(c2ccc(O)cc2)CC1 (stereo not given),EC50,[4],36.2 µM (active)
Cc1ccc(C)c(NC(=O)C(Sc2ncnc3ccccc23)c2ccccc2)c1 (stereo not given),EC50,[5],111 µM (active)
same,EC50,[6],126 µM (active)
same,IC50,[1],29.1 µM (active)
CN(C)c1nc(Oc2ccc(/C=N/O)cc2)nc(N(C)C)n1,AC50,[7],0.156 µM (active)
COc1cc(/C=N/NC(=O)c2cccc([N+](=O)[O-])c2)ccc1O,IC50,[8],5.73 µM (active)
same,IC50,[9],29 µM (active)
O=C(NCc1ccccn1)C(=O)NCC(c1ccco1)N1CCN(c2ccc(F)cc2)CC1 (stereo not given),AC50,[7],13.2 µM (active)
Cc1ccc(-c2csc(N)n2)s1,AC50,[7],0.732 µM (active)
O=C(NC(Cc1ccccc1)C(=O)NCc1ccccn1)c1ccco1 (stereo not given),EC50,[4],> 150 µM (inactive)
same,EC50,[10],> 38 µM (not active)
COC(=O)Cc1cc(=O)n(-c2nc3ccccc3s2)[nH]1,EC50,[4],> 150 µM (inactive)
same,EC50,[10],21.7 µM (active)
CCCC(=O)Nc1ccc(N2CCN(CC)CC2)c(Cl)c1,AC50,[2],20 µM (inconclusive)
same,AC50,[11],0.178 µM (inconclusive)
Cc1ccc(NC(=O)c2cc(-c3cccs3)nc3ccccc23)nc1,IC50,[1],> 79 µM (inactive)
COc1ccc(NC(=O)c2ccc(-c3ccc(-c4noc(C)n4)cc3C)cc2)cc1N1CCN(C)CC1 [GR-127935],AC50,[2],20 µM (inconclusive) and 39.8 µM (inconclusive)
CC(=O)Nc1ccc(-n2cc(-c3ccccc3)[nH]c2=S)cc1,AC50,[7],6.42 µM (active)
O=C1CSC(c2ccccc2[N+](=O)[O-])N1c1cccc(F)c1 (stereo not given),AC50,[7],0.689 µM (active)
O=C(COc1ccccc1Cl)NNC(=O)Cn1[nH]c(=O)c2ccccc2c1=O,IC50,[1],> 79 µM (inactive)
COC(=O)CC1SC(=O)NC1=Nc1ccc(O)cc1 (stereo not given),IC50,[8],16.8 µM (active)
same,IC50,[9],52.9 µM (active)
Cc1ccc(S(=O)(=O)NC(CC(C)C)C(=O)Oc2ccc3c4c(c(=O)oc3c2)CCC4)cc1 (stereo not given),AC50,[2],15.8 µM (inconclusive)
COc1ccc(Cl)cc1NC(=O)CN(C)C(=O)CCc1nc(O)c2ccccc2n1,IC50,[1],> 79 µM (inactive)
N#CC1=C(N)C2=C(N3CCCCC3)CCCC2C1(C#N)C#N (stereo not given),EC50,[12],89.4 µM (active)
same,EC50,[13],77.1 µM (active)
same,IC50,[8],9.99 µM (active)
same,IC50,[14],> 66 µM (inactive)
same,IC50,[15],> 66 µM (inactive)
COc1ccc2nc(Nc3ccccc3OC)sc2c1,AC50,[7],1.71 µM (active)
CC(=O)Nc1ccc(N2CCCCC2)cc1,IC50,[8],13.2 µM (active)
same,AC50,[7],2.96 µM (active)
same,AC50,[16],0.251 µM (inconclusive)
C/C(=N\NC(=O)CCC(=O)Nc1ccc(C)c(C)c1)C1CC1,EC50,[4],> 150 µM (inactive)
same,EC50,[10],> 38 µM (not active)
OC(c1ccccc1)(c1ccccc1)C1CCNCC1 [AZACYCLONOL],AC50,[2],15.8 µM (inconclusive)
O=C(NCc1ccco1)c1ccccc1NS(=O)(=O)c1ccc(Br)s1,EC50,[4],> 160 µM (inactive)
same,EC50,[10],2.35 µM (active)
same,AC50,[3],14.1 µM (inconclusive)
CC1CCCC(C)N1C(=O)c1ccccc1Nc1ccc(SC(F)F)cc1 (stereo not given),AC50,[2],0.631 µM (inconclusive)
same,AC50,[3],17.8 µM (inconclusive)
Cc1ccc(SCC(=O)Nc2ccc3c(c2)C(=O)N(C)C3=O)cc1,EC50,[4],> 150 µM (inactive)
same,EC50,[10],> 38 µM (not active)
Cc1ccccc1C(C(=O)NCc1ccccc1)N(Cc1ccco1)C(=O)c1ccccn1 (stereo not given),IC50,[1],> 79 µM (inactive)
CCn1c(SCC(=O)N2CCN(c3ccccc3)CC2)nc2c(c1=O)SC(C)C2 (stereo not given),IC50,[1],11.9 µM (active)
CC(=O)c1ccc(N2CCN(C(=O)c3cc(-c4cccnc4)nc4ccc(Br)cc34)CC2)cc1,IC50,[1],> 79 µM (inactive)
Cc1ccc(-c2nnc(O)c3ccccc23)cc1S(=O)(=O)NC(C)(C)C,IC50,[1],> 79 µM (inactive)
CCCOc1ccc(C(=O)OCCN(CC)CC)cc1N [PROPARACAINE],AC50,[17],inconclusive
same,AC50,[2],6.31 µM (inconclusive)
CC(=O)Oc1ccc(-c2cccc(C(=O)N(C)c3ccc(O)cc3)c2)cc1,AC50,[7],22.9 µM (active)
COc1ccc2cc(CCl)c(Cl)nc2c1,AC50,[7],5.78 µM (active)
